Broadly, the pKa is the negative logarithm of the acid dissociation constant.

This note sets out measurements from patent publication US12503432B2, “Ionizable lipids for nucleic acid delivery” (Global Life Sciences Solutions Canada ULC, priority 2019, dated 2025).

A short description of data set [1]: TNS fluorescence assay: experimental pKa of formulated lipid nanoparticles. Type of data set: physicochemical. To be noted: experimental surface pKa of empty LNP, cationic lipid/DSPC/cholesterol/PEG-lipid (50/10/38.5/1.5). On the procedure:
The pKa of each cationic lipid was determined in lipid nanoparticles using an assay based on fluorescence of 6-(p-Toluidino)-2-naphthalenesulfonic acid sodium salt (TNS, Sigma Aldrich), which is a fluorescent probe for the conformational state of proteins^5. Empty lipid nanoparticles comprising of cationic lipid/DSPC/cholesterol/PEG-lipid (50/10/38.5/1.5) in distilled water at a concentration of 3.125 mM total lipid are formulated using NanoAssemblr® Spark™, and were then was characterized for LNP quality on the Zetasizer™ using a 30× dilution with 1×PBS in the low volume cuvette. Lipid nanoparticles were further diluted 4× using distilled water to 0.781 mM total lipid. TNS was prepared as a 25 μM stock solution in distilled water. Then 6.4 μL of diluted LNP samples of 0.781 mM total lipid were mixed with 10 μL of diluted TNS to a final volume of 250 μL with buffer containing 10 mM HEPES, 10 mM MES, 10 mM NH4OAc and 130 mM NaCl where the pH ranged from 3 to 9 in 0.5 pH increments.
Samples were mixed thoroughly, and the fluorescence intensity was measured at room temperature in a BioTek™ Synergy™ H1 Hybrid Multi-Mode Monochromator™ Fluorescence Microplate Reader using excitation and emission wavelengths of 321 nm and 445 nm respectively. A sigmoidal best fit analysis was applied to the fluorescence data using GraphPad Prism™ software, and the pKa was measured as the pH at half-maximal fluorescence intensity.

Data set [2] in a line: LNP characterization: size and PDI by dynamic light scattering, mRNA encapsulation efficiency by RiboGreen assay. Type of data set: physicochemical. On the procedure:
Particle sizes and “polydispersity index” (PDI) of the lipid particle were measured by dynamic light scattering (DLS). PDI indicates the width of the particle distribution. This is a parameter calculated from a cumulative analysis of the (DLS)-measured intensity autocorrelation function assuming a single particle size mode and a single exponential fit to the autocorrelation function. […] The particles produced by mechanical micromixers such as the NanoAssemblr® Spark™ and NanoAssemblr® Benchtop (Precision NanoSystems Inc.) are substantially homogeneous in size assuming all other variables are neutral. A lower PDI indicates a more homogenous population of lipid particles. The Spark™ instrument is used in a screening setting to identify the lead compositions. Once the composition is selected, the lipid particle can be fine-tuned using the NanoAssemblr® Benchtop. Once the process parameters Flow Rate Ratio and Total Flow Rate is identified for the specific nanoparticle composition, the nanoparticle technology can be scaled up using the same process parameter values.
Lipid particles were also manufactured by a larger microfluidic mixer instrument, the NanoAssemblr® Ignite™ for testing. Briefly, 350 μL of mRNA was diluted using 100 mM sodium acetate buffer to the required concentration of 0.2 to 0.3 mg/mL. Lipid particle samples were then prepared by running both fluids, namely, nucleic acids in aqueous solvent and Lipid Mix in ethanol at a flow ratio of 3:1 and at a total flow rate of 12 ml/min in the microfluidic mixer. Following mixing in the microfluidic device, the post cartridge lipid nucleic acid particle sample was diluted into RNAse free tubes containing three to 40 volumes of phosphate buffered saline (PBS), pH 7.4. Ethanol was finally removed through dialysis in PBS, pH 7, or using Amicon™ centrifugal filters (Millipore, USA) at 3000 RPM, or using TFF systems. Once the required concentration was achieved, the lipid nucleic acid particles were filter sterilized using 0.2 μm filters in aseptic conditions. Final encapsulation efficiency was measured by the Ribogreen™ assay. Quant-iT™ RiboGreen® RNA Reagent and Kit (Invitrogen) following manufacturer directions.
Messenger RNA or plasmid nucleic acid therapeutic (NAT) as described below, was diluted using sodium acetate buffer to the required concentration. Lipid nucleic acid particle (LNAP) samples were then prepared by running both fluids using the NanoAssemblr® Spark instrument. Briefly, […] of nucleic acids in 100 mM sodium acetate buffer in a total volume of 32 μL was mixed with 16 μL of 37.5 mM lipid mix solution as required by the N/P ratios (4, 6, or 10 in illustrated examples). The microfluidically mixed lipid nucleic acid particles (LNAP) made in the instrument were immediately diluted down with 48 μL Ca++ and Mg++ free 1× PBS at pH 7.4 in the aqueous output well. These LNAP were immediately collected into microcentrifuge tubes containing 96 μL of the same buffer at pH 7.4. Encapsulation efficiency was measured by a modified Ribogreen™ assay (Quanti-iT RiboGreen™ RNA assay kit, Fisher). This information was used to establish the desired dosage.
After the lipid particles were made as described in Example 17, particle size (hydrodynamic diameter of the particles) was determined by Dynamic Light Scattering (DLS) using a ZetaSizer™ Nano ZS™ (Malvern Instruments, UK). He/Ne laser of 633 nm wavelength was used as the light source. Data were measured from the scattered intensity data conducted in backscattering detection mode (measurement angle=173). Measurements were an average of 10 runs of two cycles each per sample. Z-Average size was reported as the particle size, and is defined as the harmonic intensity averaged particle diameter. These LNP characteristics, as well as the results of the mRNA encapsulation efficiency for various Lipid Mixes are also described in the application are shown in Tables 4, 5 and 6. […]

The mark [3] stands for this setting: 5-moU EPO encoded LNPs, IL:DSPC:cholesterol:DMG-PEG (50:10:38.5:1.5), N/P 6.
The mark [4] stands for this setting: OVA encoded LNPs, payload WT OVA, LM02, N/P 8.
Where [5] appears, read: Table 4 LNPs, payload and lipid mix not stated.
The mark [6] stands for this setting: OVA encoded LNPs, payload 5-moU OVA, LM02, N/P 8.

Molecules are shown by their SMILES.

As to `CC/C=C\CC1C(CC(=O)OCC(COCCCCCCCC/C=C\C/C=C\CCCCC)OCCCCCCCC/C=C\C/C=C\CCCCC)CCC1OC(=O)CCCN(C)C` (stereo not drawn) [PNI 101], the pKa in data set [1] was found to be 6.37. In addition, in data set [2] (setting [3]), the “Diameter (Z. ave, nm)” value was 97.7 nm; the “Encapsulation Efficiency (%)” value worked out at 93.4%; the “Polydispersity Index (PDI)” value came to 0.08. Further, in data set [2] (setting [4]), the “Diameter (Z. ave, nm)” value stood at 93.2 nm; the “Encapsulation Efficiency (%)” value is reported as 98.4%; the “Polydispersity Index (PDI)” value is listed as 0.09. In data set [2] (setting [5]), the “Diameter (Z. ave, nm)” value was found to be 74.10 nm; the “Encapsulation Efficiency (%)” value amounted to 93.0%; the “Polydispersity Index (PDI)” value is recorded as 0.156.
Regarding `CC/C=C\CC1C(CC(=O)OCC(COCCCCCCCC/C=C\C/C=C\CCCCC)OCCCCCCCC/C=C\C/C=C\CCCCC)CCC1OC(=O)C1(C)CCN(C)CC1` (stereo not drawn) [PNI 123], the pKa in data set [1] is 6.01. The “Diameter (Z. ave, nm)” value in data set [2] (setting [3]) is 76.6 nm; in data set [2] (setting [4]), 96.5 nm; in data set [2] (setting [5]), 124.7 nm. The “Encapsulation Efficiency (%)” value is reported as 97.3% in data set [2] (setting [3]), 76.1% in data set [2] (setting [4]) and 60.1% in data set [2] (setting [5]). The “Polydispersity Index (PDI)” value was determined as 0.04 in data set [2] (setting [3]), 0.03 in data set [2] (setting [4]) and 0.054 in data set [2] (setting [5]).
For `CC/C=C\CC1C(CC(=O)OCC(COCCCCCCCC/C=C\C/C=C\CCCCC)OCCCCCCCC/C=C\C/C=C\CCCCC)CCC1OC(=O)C1CCN(C)CC1` (stereo not drawn) [PNI 132], in data set [1], the pKa stood at 6.1. Besides, the “Diameter (Z. ave, nm)” value in data set [2] (setting [3]) came out at 70.3 nm; in data set [2] (setting [4]), 82.6 nm; in data set [2] (setting [5]) it was 74.5 nm. Also, the “Encapsulation Efficiency (%)” value in data set [2] (setting [3]) was 98.2%; in data set [2] (setting [4]), 97.1%; in data set [2] (setting [5]), 98.2%. The “Polydispersity Index (PDI)” value came out at 0.04 in data set [2] (setting [3]), 0.07 in data set [2] (setting [4]) and 0.06 in data set [2] (setting [5]).
With `CC/C=C\CC1C(CC(=O)OC(CCCCCCCCC2CC2CCCCCCCC)CCCCCCCCC2CC2CCCCCCCC)CCC1OC(=O)CCCN(C)C` (stereo not drawn) [PNI 516], the pKa in data set [1] stood at 6.18. For the same compound, the “Diameter (Z. ave, nm)” value in data set [2] (setting [3]) is given as 69.0 nm; in data set [2] (setting [6]), 76.5 nm; in data set [2] (setting [4]), 75.9 nm; in data set [2] (setting [5]), 68.5 nm. Also, the “Encapsulation Efficiency (%)” value in data set [2] (setting [3]) is on record as 98.7%; in data set [2] (setting [6]) it was 98.2%; in data set [2] (setting [4]), 98.6%; in data set [2] (setting [5]), 98.7%. Besides, the “Polydispersity Index (PDI)” value amounted to 0.02 in data set [2] (setting [3]), 0.04 in data set [2] (setting [6]), 0.02 in data set [2] (setting [4]) and 0.12 in data set [2] (setting [5]).
For the compound `CC/C=C\CC1C(CC(=O)OCC(COCCCCCCCC/C=C\C/C=C\CCCCC)OCCCCCCCC/C=C\C/C=C\CCCCC)CCC1OC(=O)CCCN(CC)CC` (stereo not drawn) [PNI 542], the pKa in data set [1] was determined as 6.11. Besides, the figures for the “Diameter (Z. ave, nm)” value in data set [2] (setting [3]), in data set [2] (setting [4]) and in data set [2] (setting [5]) were 68.5 nm, 74.6 nm and 79.4 nm, respectively. Further, the results for the “Encapsulation Efficiency (%)” value in data set [2] (setting [3]), in data set [2] (setting [4]) and in data set [2] (setting [5]) were 98.7%, 98.7% and 98.8%, respectively. Further, the “Polydispersity Index (PDI)” value in data set [2] (setting [3]) was found to be 0.02; in data set [2] (setting [4]), 0.01; in data set [2] (setting [5]), 0.04.
As for `CC/C=C\CC1C(CC(=O)OCC(COCCCCCCCCC2CC2CCCCCCCC)OCCCCCCCCC2CC2CCCCCCCC)CCC1OC(=O)CCN(C)C` (stereo not drawn) [PNI 544], in data set [1], the pKa was 5.68. In data set [2] (setting [3]), the “Diameter (Z. ave, nm)” value is on record as 62.3 nm; the “Encapsulation Efficiency (%)” value is 97.6%; the “Polydispersity Index (PDI)” value amounted to 0.05. For the same compound, in data set [2] (setting [5]), the “Diameter (Z. ave, nm)” value came to 51.3 nm; the “Encapsulation Efficiency (%)” value is listed as 97.9%; the “Polydispersity Index (PDI)” value was found to be 0.04.
